Source: paper PMC5745808 (Biochemistry, 2016)
Read-outs that look alike come from different tables or passages of the source. Peptide text beside a SMILES is read from it. * marks the point of attachment. Cbz = O=C(OCc1ccccc1)*

Legend:
c-20S β5c = c-20S β5c (Homo sapiens, UniProt P20618+P28074); conditions: ref [20], cited from earlier work
i-20S β5i = i-20S β5i (Homo sapiens, UniProt P20618+P28062); conditions: ref [20], cited from earlier work
M. tuberculosis = conditions: under nitrosative stress; ref [20]; cited from earlier work
Mtb20SOG [1] = target: T1, Mtb20SOG (Mycobacterium tuberculosis, UniProt P9WHT9); conditions: ref [20], cited from earlier work
Mtb20SOG [2] = target: T1, Mtb20SOG; experiment: biochemical

T1 sequence (P9WHT9 58-291): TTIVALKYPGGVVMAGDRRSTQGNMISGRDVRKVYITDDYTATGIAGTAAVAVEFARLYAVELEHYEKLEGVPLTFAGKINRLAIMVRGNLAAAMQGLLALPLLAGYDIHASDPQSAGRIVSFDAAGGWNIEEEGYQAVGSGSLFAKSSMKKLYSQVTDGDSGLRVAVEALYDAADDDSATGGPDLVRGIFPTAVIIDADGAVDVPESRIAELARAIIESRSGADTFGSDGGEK
T1 sequence (P9WHU1 9-248 partner): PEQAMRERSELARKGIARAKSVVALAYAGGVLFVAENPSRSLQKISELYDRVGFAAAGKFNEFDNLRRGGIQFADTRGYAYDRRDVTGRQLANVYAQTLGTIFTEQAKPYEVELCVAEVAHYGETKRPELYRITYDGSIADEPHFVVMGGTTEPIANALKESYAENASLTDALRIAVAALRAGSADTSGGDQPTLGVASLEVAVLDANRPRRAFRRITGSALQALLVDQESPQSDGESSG

Row | Compound | SIapp IC50β5c/IC50Mtb20SOG (c-20S β5c; apparent selectivity index) | IC50 (c-20S β5c; read-out: IC50 c-20S β5c (LLVY), suc-LLVY-AMC) | affinity for Mtb 20S stronger than for human c-20S (c-20S β5c) | SIapp IC50β5i/IC50Mtb20SOG (i-20S β5i; apparent selectivity index) | IC50 (i-20S β5i; read-out: IC50 i-20S β5i (ANW), Ac-ANW-AMC) | affinity for Mtb 20S stronger than for human i-20S (i-20S β5i) | bactericidal activity against nonreplicating bacteria (M. tuberculosis) | more potent against Mtb20SOG than DPLG-4 (Mtb20SOG [1]; DPLG-4 has a 4-isopropyl phenyl P1 group) | more potent against Mtb20SOG than ML9 (Mtb20SOG [1]; ML9 has a 2,4-difluorobenzyl P1 group) | IC50 (Mtb20SOG [1]; read-out: IC50 Mtb20SOG (LLVY), suc-LLVY-AMC) | IC50 (Mtb20SOG [2])
1 | CCN(CC)C(=O)C[C@H](NC(=O)CCc1ccccc1)C(=O)N[C@@H](Cc1ccc(F)cc1)C(=O)NCc1cccc2ccccc12 [DPLG-2] | 4667 | 70 µM | 4667 fold | 3647 | 54.7 µM | 3647 fold | bactericidal activity | 51 fold | 4 fold | 0.015 µM | 
2 | CC(C)C[C@@H](C=O)NC(=O)[C@H](CC(C)C)NC(=O)[C@H](CC(C)C)NC(=O)OCc1ccccc1 [MG-132] (Cbz-Leu-Leu-Leu-aldehyde) |  |  |  |  |  |  |  |  |  |  | 1.71 ± 0.079 µM
